Data from the NIST ThermoML archive (doi:10.1021/acs.jced.9b00062).

What was measured:
[1] = for Normal melting temperature: DTA
[2] = Molar enthalpy of transition or fusion; details: Crystal; DSC

COc1c(Cl)cc(Cl)cc1Cl [2,4,6-trichloroanisole]
[1]
Details | vapor or sublimation pressure [kPa]
297.11 K, Crystal, Closed cell (Static) method | 0.00239
300.13 K, Crystal, Closed cell (Static) method | 0.00337
303.1 K, Crystal, Closed cell (Static) method | 0.00462
306.06 K, Crystal, Closed cell (Static) method | 0.00649
309.01 K, Crystal, Closed cell (Static) method | 0.00877
311.98 K, Crystal, Closed cell (Static) method | 0.01199
315.2 K, Crystal, Closed cell (Static) method | 0.01642
317.95 K, Crystal, Closed cell (Static) method | 0.02189
319.65 K, Metastable liquid, Closed cell (Static) method | 0.03551
320.87 K, Crystal, Closed cell (Static) method | 0.02895
322.82 K, Metastable liquid, Closed cell (Static) method | 0.04391
323.91 K, Crystal, Closed cell (Static) method | 0.03921
325.77 K, Metastable liquid, Closed cell (Static) method | 0.05384
326.89 K, Crystal, Closed cell (Static) method | 0.05174
328.77 K, Metastable liquid, Closed cell (Static) method | 0.06611
329.85 K, Crystal, Closed cell (Static) method | 0.06647
331.73 K, Metastable liquid, Closed cell (Static) method | 0.0803
334.71 K, Closed cell (Static) method, Liquid | 0.09766
337.68 K, Closed cell (Static) method, Liquid | 0.118
340.63 K, Closed cell (Static) method, Liquid | 0.1424
343.63 K, Closed cell (Static) method, Liquid | 0.1712
346.05 K, Closed cell (Static) method, Liquid | 0.1971
348.6 K, Closed cell (Static) method, Liquid | 0.2292
351.58 K, Closed cell (Static) method, Liquid | 0.2724
354.51 K, Closed cell (Static) method, Liquid | 0.3225
356.47 K, Closed cell (Static) method, Liquid | 0.3593
359.37 K, Closed cell (Static) method, Liquid | 0.4214
362.38 K, Closed cell (Static) method, Liquid | 0.4943
365.32 K, Closed cell (Static) method, Liquid | 0.5801
368.31 K, Closed cell (Static) method, Liquid | 0.6729

Details | Normal melting temperature [°C]
[1], Crystal | 59.32

Details | Molar enthalpy of transition or fusion [kcal/mol]
[2] | 5.35

COc1c(Br)cc(Br)cc1Br [2,4,6-tribromoanisole]
[1]
Details | vapor or sublimation pressure [kPa]
330.66 K, Crystal, Closed cell (Static) method | 0.00284
332.63 K, Crystal, Closed cell (Static) method | 0.00349
334.5 K, Crystal, Closed cell (Static) method | 0.0042
336.57 K, Metastable liquid, Closed cell (Static) method | 0.00889
336.63 K, Crystal, Closed cell (Static) method | 0.0051
338.58 K, Crystal, Closed cell (Static) method | 0.00623
338.61 K, Metastable liquid, Closed cell (Static) method | 0.01033
340.54 K, Crystal, Closed cell (Static) method | 0.00747
340.57 K, Metastable liquid, Closed cell (Static) method | 0.01173
342.54 K, Metastable liquid, Closed cell (Static) method | 0.01369
342.55 K, Crystal, Closed cell (Static) method | 0.00915
344.5 K, Crystal, Closed cell (Static) method | 0.01086
344.5 K, Metastable liquid, Closed cell (Static) method | 0.01549
346.47 K, Crystal, Closed cell (Static) method | 0.01317
346.48 K, Metastable liquid, Closed cell (Static) method | 0.01786
348.43 K, Crystal, Closed cell (Static) method | 0.01563
348.5 K, Metastable liquid, Closed cell (Static) method | 0.02061
350.42 K, Crystal, Closed cell (Static) method | 0.01881
350.43 K, Metastable liquid, Closed cell (Static) method | 0.02345
352.4 K, Crystal, Closed cell (Static) method | 0.0224
352.41 K, Metastable liquid, Closed cell (Static) method | 0.02697
354.32 K, Crystal, Closed cell (Static) method | 0.0266
354.42 K, Metastable liquid, Closed cell (Static) method | 0.03065
356.36 K, Metastable liquid, Closed cell (Static) method | 0.03485
356.37 K, Crystal, Closed cell (Static) method | 0.03175
358.31 K, Metastable liquid, Closed cell (Static) method | 0.03946
360.25 K, Metastable liquid, Closed cell (Static) method | 0.04472
362.27 K, Closed cell (Static) method, Liquid | 0.05049
364.24 K, Closed cell (Static) method, Liquid | 0.05678
366.22 K, Closed cell (Static) method, Liquid | 0.06459
368.15 K, Closed cell (Static) method, Liquid | 0.07257
370.19 K, Closed cell (Static) method, Liquid | 0.08197
372.11 K, Closed cell (Static) method, Liquid | 0.09183
374.05 K, Closed cell (Static) method, Liquid | 0.1023
376.07 K, Closed cell (Static) method, Liquid | 0.1152
377.95 K, Closed cell (Static) method, Liquid | 0.1277
379.95 K, Closed cell (Static) method, Liquid | 0.1426
381.85 K, Closed cell (Static) method, Liquid | 0.1595
383.82 K, Closed cell (Static) method, Liquid | 0.177
385.79 K, Closed cell (Static) method, Liquid | 0.1958
387.78 K, Closed cell (Static) method, Liquid | 0.2203
389.79 K, Closed cell (Static) method, Liquid | 0.2436
391.72 K, Closed cell (Static) method, Liquid | 0.2676

Details | Normal melting temperature [°C]
[1], Crystal | 86.29

Details | Molar enthalpy of transition or fusion [kcal/mol]
[2] | 5.71

Oc1c(Br)cc(Br)cc1Br [2,4,6-tribromophenol]
Details | mass density [kg/m3]
[1], 150 K, 101.33 kPa, Crystal, X-ray diffraction | 2712

[1]
Details | vapor or sublimation pressure [kPa]
307.16 K, Crystal, Calculated from knudsen effusion weight loss | 0.000107
309.36 K, Crystal, Calculated from knudsen effusion weight loss | 0.000141
311.2 K, Crystal, Calculated from knudsen effusion weight loss | 0.000177
313.15 K, Crystal, Calculated from knudsen effusion weight loss | 0.000221
315.37 K, Crystal, Calculated from knudsen effusion weight loss | 0.000286
317.19 K, Crystal, Calculated from knudsen effusion weight loss | 0.000358
319.15 K, Crystal, Calculated from knudsen effusion weight loss | 0.00044
321.33 K, Crystal, Calculated from knudsen effusion weight loss | 0.00057
323.2 K, Crystal, Calculated from knudsen effusion weight loss | 0.0007
325.15 K, Crystal, Calculated from knudsen effusion weight loss | 0.000857
327.33 K, Crystal, Calculated from knudsen effusion weight loss | 0.0011
329.21 K, Crystal, Calculated from knudsen effusion weight loss | 0.00133
336.49 K, Crystal, Closed cell (Static) method | 0.00284
338.49 K, Crystal, Closed cell (Static) method | 0.00343
340.48 K, Crystal, Closed cell (Static) method | 0.00423
342.48 K, Crystal, Closed cell (Static) method | 0.00513
344.42 K, Crystal, Closed cell (Static) method | 0.00612
344.43 K, Metastable liquid, Closed cell (Static) method | 0.01029
346.35 K, Crystal, Closed cell (Static) method | 0.00743
346.53 K, Metastable liquid, Closed cell (Static) method | 0.012
348.28 K, Metastable liquid, Closed cell (Static) method | 0.01367
348.35 K, Crystal, Closed cell (Static) method | 0.00894
350.35 K, Crystal, Closed cell (Static) method | 0.01085
350.37 K, Metastable liquid, Closed cell (Static) method | 0.01582
352.36 K, Metastable liquid, Closed cell (Static) method | 0.01813
352.41 K, Crystal, Closed cell (Static) method | 0.01316
354.35 K, Metastable liquid, Closed cell (Static) method | 0.02079
354.4 K, Crystal, Closed cell (Static) method | 0.01584
356.31 K, Metastable liquid, Closed cell (Static) method | 0.02367
358.2 K, Metastable liquid, Closed cell (Static) method | 0.02689
360.17 K, Metastable liquid, Closed cell (Static) method | 0.03085
362.2 K, Metastable liquid, Closed cell (Static) method | 0.03491
364.19 K, Metastable liquid, Closed cell (Static) method | 0.04045
366.13 K, Metastable liquid, Closed cell (Static) method | 0.04605
368.11 K, Closed cell (Static) method, Liquid | 0.05207
370.06 K, Closed cell (Static) method, Liquid | 0.05865
372.03 K, Closed cell (Static) method, Liquid | 0.06591
374.17 K, Closed cell (Static) method, Liquid | 0.07545
376.12 K, Closed cell (Static) method, Liquid | 0.08537
378.03 K, Closed cell (Static) method, Liquid | 0.09595
380 K, Closed cell (Static) method, Liquid | 0.1071
381.93 K, Closed cell (Static) method, Liquid | 0.119
383.93 K, Closed cell (Static) method, Liquid | 0.1348
385.88 K, Closed cell (Static) method, Liquid | 0.1513
387.86 K, Closed cell (Static) method, Liquid | 0.1682
389.84 K, Closed cell (Static) method, Liquid | 0.1876
391.79 K, Closed cell (Static) method, Liquid | 0.2094
393.77 K, Closed cell (Static) method, Liquid | 0.2339
395.73 K, Closed cell (Static) method, Liquid | 0.259
397.68 K, Closed cell (Static) method, Liquid | 0.284
399.69 K, Closed cell (Static) method, Liquid | 0.3164
401.66 K, Closed cell (Static) method, Liquid | 0.3517

Details | Normal melting temperature [°C]
[1], Crystal | 92.92

Details | Molar enthalpy of transition or fusion [kcal/mol]
[2] | 4.97
